One assay has as its target human FLAP (Homo sapiens (Human), UniProt P20292). Nature of the assay: FLAP binding assay (HTRF format). The conditions noted are these: human FLAP-containing Sf-9 membranes, 25 nM HTRF ligand, 2 h; average of runs; read-out: FLAP Binding wild type HTRF Ki. In outline:
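His6-tagged human FLAP in Sf-9 membranes competed against a FITC-labelled indole FLAP modulator in HTRF format; 2 h reaction, read as HTRF ratio. Ki and IC50 from averaged duplicate ratios over 2–20 runs of two plates each; parenthetical numbers give run count.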

Assay [1] concerns leukotriene pathway in human whole blood (LTB4). Briefly: Human whole blood assay (LTB4 after calcium ionophore A23187 stimulation). In kind it is cell-based. The conditions noted are these: Homo sapiens, human whole blood diluted 1:1 in RPMI, 15 min pre-incubation, A23187 7 μg/mL for 30 min at 37° Celsius. In outline:
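Heparinised human whole blood, diluted 1:1 in RPMI, was preincubated with compound for 15 min at 37° C. before stimulation with A23187 (7 μg/mL) for 30 min. Plasma LTB4 was measured by immunoassay kit and IC50 obtained by 4-parameter fit; single replicate per plate, blood from at least one donor.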

Structures can show the parent of a compound that is named as a salt. A value given as a limit tells only on which side of the number the result lay.

Chain of human FLAP (P20292 whole entry): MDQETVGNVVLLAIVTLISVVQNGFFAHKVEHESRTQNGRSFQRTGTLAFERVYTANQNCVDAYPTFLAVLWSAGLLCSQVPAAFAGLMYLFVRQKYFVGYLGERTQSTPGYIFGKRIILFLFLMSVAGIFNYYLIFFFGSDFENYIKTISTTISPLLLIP

For the molecule `Cc1ccc(COc2ccc3nc(C4CCCC[C@H]4C(=O)O)n(Cc4ccc(C#N)cc4)c3c2)nc1` (mixture of isomers) [Example 37, racemic cis-2-{1-(4-Cyanobenzyl)-6-[(5-methylpyridin-2-yl)methoxy]-1H-benzimidazol-2-yl}cyclohexanecarboxylic acid as the TFA salt], the Ki at human FLAP is 26 nM. In addition, the IC50 in assay [1] was found to be 680 nM.

Consider `Cc1ccc(COc2cc(Cl)c3nc(CC4(C(=O)O)CCCC4)n(Cc4ccc(Br)cc4)c3c2)nc1` [Example 78, 1-({1-(4-Bromobenzyl)-4-chloro-6-[(5-methylpyridin-2-yl)methoxy]-1H-benzimidazol-2-yl}methyl)cyclopentanecarboxylic acid], for which the inhibitory constant (Ki) on human FLAP was determined as 24 nM. In assay [1], the half-inhibitory concentration (IC50) worked out at 14000 nM.

Consider `CCC(CC)(Cc1nc2ccc(OCc3ncc(C)cc3F)cc2n1Cc1ccc(N2CCC(C)CC2)cc1)C(=O)O` [Example 180, 2-Ethyl-2-({6-[(3-fluoro-5-methylpyridin-2-yl)methoxy]-1-[4-(4-methylpiperidin-1-yl)benzyl]-1H-benzimidazol-2-yl}methyl)butanoic acid], for which, at human FLAP, the Ki came to 3 nM. Also, in assay [1], the 50% inhibitory concentration (IC50) is 560 nM.

On to `Cc1ccc(COc2cc(F)c3nc(CC4(C(=O)O)CCCC4)n(Cc4ccc(Br)cc4)c3c2)nc1` [Example 61, 1-({1-(4-Bromobenzyl)-4-fluoro-6-[(5-methylpyridin-2-yl)methoxy]-1H-benzimidazol-2-yl}methyl)cyclopentanecarboxylic acid], for which the Ki on human FLAP worked out at 6 nM. The IC50 in assay [1] is 2280 nM.

As for `Cc1ccc(Cn2c(CC(C)(C)C(=O)O)nc3ccc(OCc4ncc(C)cc4F)cc32)c(F)c1` [Example 127, 3-{1-(2-Fluoro-4-methylbenzyl)-6-[(3-fluoro-5-methylpyridin-2-yl)methoxy]-1H-benzimidazol-2-yl}-2,2-dimethylpropanoic acid], the Ki on human FLAP was determined as 160 nM. The IC50 in assay [1] amounted to 2120 nM.

On to `Cc1cnc(COc2ccc3nc(CC(C)(C)C(=O)O)n(Cc4ccc(Br)cc4)c3c2)c(F)c1` [Example 128, 3-{1-(4-Bromobenzyl)-6-[(3-fluoro-5-methylpyridin-2-yl)methoxy]-1H-benzimidazol-2-yl}-2,2-dimethylpropanoic acid], for which the Ki at human FLAP amounted to 8.5 nM. Further, in assay [1], the IC50 was found to be 1320 nM.

As to `Cc1ccc(Cn2c(CC3(C(=O)O)CCCC3)nc3c(F)cc(OCc4ccc(C)cn4)cc32)cc1` [Example 73, 1-({4-Fluoro-1-(4-methylbenzyl)-6-[(5-methylpyridin-2-yl)methoxy]-1H-benzimidazol-2-yl}methyl)cyclopentanecarboxylic acid as the TFA salt], the Ki on human FLAP was found to be 52 nM. Besides, the half-maximal inhibitory concentration (IC50) in assay [1] came to 3250 nM.

`Cn1ccc(COc2ccc3nc([C@@H]4CCCC[C@@H]4C(=O)O)n(Cc4ccc(OC(F)(F)F)cc4F)c3c2F)n1` (racemic) [Example 91, racemic cis-2-{7-Fluoro-1-[2-fluoro-4-(trifluoromethoxy)benzyl]-6-[(1-methyl-1H-pyrazol-3-yl)methoxy]-1H-benzimidazol-2-yl}cyclohexanecarboxylic acid]: the Ki on human FLAP is 6.6 nM. The IC50 in assay [1] came out at 170 nM.

With `Cc1cnc(COc2ccc3nc(CC(C)(C)C(=O)O)n(Cc4ccc(OC(F)(F)F)cc4F)c3c2)c(F)c1` [Example 131, 3-{6-[(3-Fluoro-5-methylpyridin-2-yl)methoxy]-1-[2-fluoro-4-(trifluoromethoxy)benzyl]-1H-benzimidazol-2-yl}-2,2-dimethylpropanoic acid], the Ki at human FLAP is 24 nM. Also, the IC50 in assay [1] came out at 3930 nM.

With `Cc1ccc(Cn2c([C@@H]3[C@H](C(=O)O)C3(C)C)nc3ccc(OCc4ccc(C)cn4)cc32)cc1` (racemic) [Example 121, racemic cis-2,2-Dimethyl-3-{1-(4-methylbenzyl)-6-[(5-methylpyridin-2-yl)methoxy]-1H-benzimidazol-2-yl}cyclopropanecarboxylic acid], the Ki on human FLAP turned out to be 150 nM. Also, the IC50 in assay [1] was determined as 2110 nM.

Take `CCC(CC)(Cc1nc2ccc(OCc3ncc(C)cc3F)cc2n1Cc1ccc(N2CCC(F)CC2)cc1)C(=O)O` [Example 182, 2-Ethyl-2-({6-[(3-fluoro-5-methylpyridin-2-yl)methoxy]-1-[4-(4-fluoropiperidin-1-yl)benzyl]-1H-benzimidazol-2-yl}methyl)butanoic acid]: the inhibition constant (Ki) at human FLAP came to 11 nM. Besides, the IC50 in assay [1] was 480 nM.

With `CCC(CC)(Cc1nc2ccc(OCc3ccc(C)cn3)cc2n1Cc1cccc(Br)c1)C(=O)O` [Example 14, 2-({1-(3-Bromobenzyl)-6-[(5-methylpyridin-2-yl)methoxy]-1H-benzimidazol-2-yl}methyl)-2-ethylbutanoic acid], the Ki on human FLAP turned out to be 56 nM. In addition, the IC50 in assay [1] is over 10000 nM.

As to `Cc1cnc(COc2ccc3nc(CC(C)(C)C(=O)O)n(Cc4ccc(N5CCC(F)CC5)cc4F)c3c2)c(F)c1` [Example 186], the Ki on human FLAP is 30 nM. The IC50 in assay [1] stood at 710 nM.

Consider `Cc1ccc(COc2cc(Cl)c3nc(CC(C)(C)C(=O)O)n(Cc4ccc(Br)cc4)c3c2)nc1` [Example 79, 3-{1-(4-Bromobenzyl)-4-chloro-6-[(5-methylpyridin-2-yl)methoxy]-1H-benzimidazol-2-yl}-2,2-dimethylpropanoic acid], for which the Ki on human FLAP worked out at 85 nM. Besides, the IC50 in assay [1] is about 20000 nM.

For `Cc1cc(OC(F)(F)F)ccc1Cn1c([C@@H]2CCCC[C@@H]2C(=O)O)nc2ccc(OCc3ccn(C)n3)cc21` (racemic) [Example 99, racemic cis-2-{6-[(1-Methyl-1H-pyrazol-3-yl)methoxy]-1-[2-methyl-4-(trifluoromethoxy)benzyl]-1H-benzimidazol-2-yl}cyclohexanecarboxylic acid], the Ki at human FLAP was found to be 18 nM. Besides, in assay [1], the IC50 came out at 1060 nM.

Turning to `Cn1ccc(COc2ccc3nc([C@H]4CCCC[C@H]4C(=O)O)n(Cc4ccc(OC(F)(F)F)cc4F)c3c2)n1` (stereo in doubt) [Example 53, (1R*,2S*)-2-(1-(2-Fluoro-4-(trifluoromethoxy)benzyl)-6-((1-methyl-1H-pyrazol-3-yl)methoxy)-1H-benzo[d]imidazol-2-yl)cyclohexanecarboxylic acid], on human FLAP, the Ki was determined as 3 nM. Also, in assay [1], the IC50 was 270 nM.

Regarding `Cn1ccc(COc2cc(F)c3nc([C@@H]4CCCC[C@@H]4C(=O)O)n(Cc4ccc(OC(F)(F)F)cc4)c3c2)n1` (racemic) [Example 95, racemic cis-2-{4-Fluoro-6-[(1-methyl-1H-pyrazol-3-yl)methoxy]-1-[4-(trifluoromethoxy)benzyl]-1H-benzimidazol-2-yl}cyclohexanecarboxylic acid as the HCl salt], the Ki on human FLAP was 3.6 nM. Also, the IC50 in assay [1] amounted to 1350 nM.

`Cc1ccc(COc2ccc3nc(C4CCCC[C@H]4C(=O)O)n(Cc4ccc(N5CCC(F)(F)CC5)cc4F)c3c2)nc1` (mixture of isomers) [Example 161, racemic cis-2-{1-[4-(4,4-Difluoropiperidin-1-yl)-2-fluorobenzyl]-6-[(5-methylpyridin-2-yl)methoxy]-1H-benzimidazol-2-yl}cyclohexanecarboxylic acid]: at human FLAP, the Ki came to 4 nM. Also, in assay [1], the half-maximal inhibitory concentration (IC50) was determined as 300 nM.

For the molecule `Cc1cnc(COc2ccc3nc([C@H]4CCCC[C@H]4C(=O)O)n(Cc4ccc(-c5ccc(C(F)(F)F)cc5)cc4)c3c2)c(F)c1` (single isomer, unassigned) [Example 139, (1R*,2S*)-2-(6-[(3-Fluoro-5-methylpyridin-2-yl)methoxy]-1-{[4′-(trifluoromethyl)biphenyl-4-yl]methyl}-1H-benzimidazol-2-yl)cyclohexanecarboxylic acid], the inhibition constant (Ki) on human FLAP stood at 0.47 nM. Also, the IC50 in assay [1] amounted to 140 nM.

For `Cn1ccc(COc2cc(F)c3nc([C@@H]4CCCC[C@@H]4C(=O)O)n(Cc4ccc(Br)cc4F)c3c2)n1` (racemic) [Example 94, racemic cis-2-{1-(4-Bromo-2-fluorobenzyl)-4-fluoro-6-[(1-methyl-1H-pyrazol-3-yl)methoxy]-1H-benzimidazol-2-yl}cyclohexanecarboxylic acid], on human FLAP, the Ki was found to be 2.4 nM. The IC50 in assay [1] was 340 nM.

Consider `CCC(CC)(Cc1nc2ccc(OCc3ccc(C)cn3)cc2n1Cc1ccc(OC(F)(F)F)c(Cl)c1)C(=O)O` [Example 24, 2-({1-[3-Chloro-4-(trifluoromethoxy)benzyl]-6-[(5-methylpyridin-2-yl)methoxy]-1H-benzimidazol-2-yl}methyl)-2-ethylbutanoic acid], for which the Ki at human FLAP was determined as 11 nM. The IC50 in assay [1] was over 10000 nM.
